Converted amounts (≈) assume the structure as drawn. “Also recorded” adds a separate entry of the source.
Key:
Assay type in all cases: cell-based
[1] = tested on: Staphylococcus aureus 209P; test: Antibacterial activity (MIC, growth in BHI medium); parameters: key to Antibacterial activity (growth): -: grow; ±: slightly grow; +: not grow
Experimental: To a test tube was charged 3.8 ml of Brain Heart Infusion (BHI) medium, and 100 μl of a sample solution containing oleanolic, ursolic or glycyrrhetic acid and 100 μl of pre-incubated culture of bacterium selected from those listed below were added thereto. The mixture was incubated at 37° C. and then allowed to stand over night. The extent of the growth of bacterium was observed after two or five days. The MIC value was determined for each sample and summarized in Table 2. |Staphylococcus aureus […]

bacterial cells = test: Adherence of bacterial cells to the surface of an extracted tooth; details: extracted tooth suspended in a culture medium containing sucrose
[2] = tested on: Pseudomonas aeruginosa KM338; test: Antibacterial activity (MIC, growth in BHI medium); parameters: key to Antibacterial activity (growth): -: grow; ±: slightly grow; +: not grow
Experimental: To a test tube was charged 3.8 ml of Brain Heart Infusion (BHI) medium, and 100 μl of a sample solution containing oleanolic, ursolic or glycyrrhetic acid and 100 μl of pre-incubated culture of bacterium selected from those listed below were added thereto. The mixture was incubated at 37° C. and then allowed to stand over night. The extent of the growth of bacterium was observed after two or five days. The MIC value was determined for each sample and summarized in Table 2. |Pseudomonas aeruginosa KM338

[3] = tested on: S. mutans OMZ 176 (serotype d); test: microbe, parasite or virus in culture
Procedure, shortened: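 S. mutans OMZ 176 (serotype d) grown 20 h at 37° C in BHI with 5% sucrose plus compound (in water or DMSO) in tubes slanted at 30°. Adhered and non-adhered cells resuspended in 0.5 M NaOH and read at 660 nm. Adherence inhibition computed against vehicle control.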

Esherichia coli K12 = test: Antibacterial activity (MIC, growth in BHI medium); parameters: key to Antibacterial activity (growth): -: grow; ±: slightly grow; +: not grow
Experimental: (§1) To a test tube was charged 3.8 ml of Brain Heart Infusion (BHI) medium, and 100 μl of a sample solution containing oleanolic, ursolic or glycyrrhetic acid and 100 μl of pre-incubated culture of bacterium selected from those listed below were added thereto. The mixture was incubated at 37° C. and then allowed to stand over night. The extent of the growth of bacterium was observed after two or five days.
Esherichia coli K12 (Gram negative)

[4] = tested on: Streptococcus mutans OMZ 176; test: Antibacterial activity (MIC, growth in BHI medium); parameters: key to Antibacterial activity (growth): -: grow; ±: slightly grow; +: not grow; details: for antibacterial activity to S. mutans (in words): text statement
Experimental: as §1
Streptococcus mutans OMZ 176

[5] = tested on: Bacillus megaterium QM B1551; test: Antibacterial activity (MIC, growth in BHI medium); parameters: key to Antibacterial activity (growth): -: grow; ±: slightly grow; +: not grow
Experimental: To a test tube was charged 3.8 ml of Brain Heart Infusion (BHI) medium, and 100 μl of a sample solution containing oleanolic, ursolic or glycyrrhetic acid and 100 μl of pre-incubated culture of bacterium selected from those listed below were added thereto. The mixture was incubated at 37° C. and then allowed to stand over night. The extent of the growth of bacterium was observed after two or five days. The MIC value was determined for each sample and summarized in Table 2. |Bacillus megaterium QM B1551

[6] = Streptococcus mutans, read-out: Adherence-inhibiting activity (AIP)

Compound: CC1(C)CC[C@]2(C(=O)O)CC[C@]3(C)C(=CC[C@@H]4[C@@]5(C)CC[C@H](O)C(C)(C)[C@@H]5CC[C@]43C)[C@@H]2C1 [Oleanolic acid]
- Antibacterial activity (growth) ([1]; 10 μg/ml): -
- Antibacterial activity (growth) ([1]; 25 μg/ml): -
- Antibacterial activity (growth) ([1]; 50 μg/ml): -
- Antibacterial activity (growth) ([1]; 100 μg/ml): -
- Antibacterial activity (growth) ([1]; 200 μg/ml): -
- Antibacterial activity (growth) ([1]; 400 μg/ml): -
- MIC ([1]; 209P, Staphylococcus aureus, BHI, 37° C., read-out: MIC (minimum inhibitory concentration)): > 400 µg/mL
- adherence of bacterial cells to the surface of an extracted tooth (bacterial cells): completely inhibited
- Antibacterial activity (growth) ([2]; 10 μg/ml): -
- Antibacterial activity (growth) ([2]; 25 μg/ml): -
- Antibacterial activity (growth) ([2]; 50 μg/ml): -
- Antibacterial activity (growth) ([2]; 100 μg/ml): -
- Antibacterial activity (growth) ([2]; 200 μg/ml): -
- Antibacterial activity (growth) ([2]; 400 μg/ml): -
- MIC ([2]; KM338, Pseudomonas aeruginosa, BHI, 37° C., read-out: MIC (minimum inhibitory concentration)): > 400 µg/mL
- minimal effective concentration ([3]; Streptococcus mutans, 20 h, read-out: concentration at which adherence of the bacterial cells is inhibited): 10 µg/mL
- inhibition at 10 µg/mL [3, 6]: > 50%
- inhibition at 20 µg/mL [3, 6]: > 50%
- inhibition at 30 µg/mL [3, 6]: > 50%
- inhibition at 50 µg/mL [3, 6]: > 50%
- inhibition at 100 µg/mL [3, 6]: > 50%
- adherence-inhibiting activity (in words) ([3]; text statement, listed as oleanolic acid): have both of the adherence-inhibiting activity and the selective antibacterial activity to S. mutans; also recorded: have both activities
- Antibacterial activity (growth) (Esherichia coli K12; 10 μg/ml): -
- Antibacterial activity (growth) (Esherichia coli K12; 25 μg/ml): -
- Antibacterial activity (growth) (Esherichia coli K12; 50 μg/ml): -
- Antibacterial activity (growth) (Esherichia coli K12; 100 μg/ml): -
- Antibacterial activity (growth) (Esherichia coli K12; 200 μg/ml): -
- Antibacterial activity (growth) (Esherichia coli K12; 400 μg/ml): -
- MIC (Esherichia coli K12; Esherichia coli, BHI, 37° C., read-out: MIC (minimum inhibitory concentration)): > 400 µg/mL
- Antibacterial activity (growth) ([4]; 10 μg/ml): -
- antibacterial activity at 10 μg/ml (in words) ([4]; 10 μg/ml): ineffective for exhibiting antibacterial activity
- Antibacterial activity (growth) ([4]; 25 μg/ml): -
- Antibacterial activity (growth) ([4]; 50 μg/ml): ±
- Antibacterial activity (growth) ([4]; 100 μg/ml): ±
- Antibacterial activity (growth) ([4]; 200 μg/ml): ±
- Antibacterial activity (growth) ([4]; 400 μg/ml): ±
- MIC ([4]; Streptococcus mutans, OMZ176, Streptococcus mutans OMZ 176, BHI, 37° C., read-out: MIC (minimum inhibitory concentration)): 400 µg/mL (≈ 876 µM)
- antibacterial activity to S. mutans (in words) [4]: also exhibit the selective activity on S. mutans, although the magnitude of the activity is each less than that of glycyrrthetic acid
- antibacterial activity to S. mutans (in words) ([4]; listed as oleanolic acid): have both of the adherence-inhibiting activity and the selective antibacterial activity to S. mutans; also recorded: have both activities
- Antibacterial activity (growth) ([5]; 10 μg/ml): -
- Antibacterial activity (growth) ([5]; 25 μg/ml): -
- Antibacterial activity (growth) ([5]; 50 μg/ml): -
- Antibacterial activity (growth) ([5]; 100 μg/ml): -
- Antibacterial activity (growth) ([5]; 200 μg/ml): -
- Antibacterial activity (growth) ([5]; 400 μg/ml): -
- MIC ([5]; Priestia megaterium, QMB1551, Bacillus megaterium, BHI, 37° C., read-out: MIC (minimum inhibitory concentration)): > 400 µg/mL
